The test system of this assay is adult beagle dogs. Nature of the assay: Metformin-induced retrograde giant contractions (RGCs) and vomiting in beagle dogs, with or without intravenous ondansetron. It counts as in vivo, dog. The method, then: Contractions of the smooth muscle of the gastrointestinal tracts of the dogs were monitored with strain gauge force transducers to permit detection of retrograde giant contractions (RGCs). The times at which either RGCs or vomiting occurred were recorded. Vomiting is always preceded by RGCs, while RGCs may also occur without vomiting and are generally thought to be an indication of nausea.

The structures appear in SMILES notation.

For the compound `Cc1nccn1CC1CCc2c(c3ccccc3n2C)C1=O` (stereo not shown) [Ondansetron, 1,2,3 ,9-Tetrahydro-9-methyl-3-[(2-methyl1-H-imidazole-1-yl)methyl]-4H-carbazol-4-one], the “Time at which one RGC and vomit occurred after metformin administration” value (Dog A, Test 2, ondansetron 0.15 mg/kg i.v. 15 min before metformin 25 mg/kg) is given as 179 minutes after metformin. In addition, the “Observations (RGCs, vomiting)” value by setting is: (Dog A, Test 3, ondansetron 0.15 mg/kg i.v. 15 min before metformin 25 mg/kg) “no RGCs or vomiting occurred”; (Dog B, Tests 3 and 4, ondansetron 0.15 mg/kg i.v. 15 min before metformin 50 mg/kg) “no RGCs or vomiting occurred”. Besides, under “overall conclusion from the dog tests”, the “Suppression of the emetic effects of a metformin dosage” value is “effective in suppressing the emetic effects”.

These data come from patent US6451808B1 (DepoMed, Inc., priority 2000, dated 2002).
